Values of other authors, collected in the PKSmart pharmacokinetics tables (Seal et al. 2025).
Where a SMILES comes first, the peptide text is derived from it. Bridges are numbered along the chain shown (N, C = ends). [ ]: non-standard residue; d: D form. Mpa = O=C(O)CCS

Assay: Lombardo, Berellini, Obach 2018, Drug Metab Dispos 46:1466, doi 10.1124/dmd.118.082966
Conditions: human; for MRT / Vd / clearance / half-life: in vivo, iv; for fraction unbound: plasma

Structure (SMILES) | MRT [h] | Vd [L/kg] | clearance [mL/min/kg] | half-life [h] | fraction unbound
C[C@@H](O[C@H]1OCCN(Cc2nc(=O)n(P(=O)(O)O)[nH]2)[C@H]1c1ccc(F)cc1)c1cc(C(F)(F)F)cc(C(F)(F)F)c1 | 0.06 | 0.07 | 18.6 | 2.2 | 0.02
COP(=O)(c1cc(C)cc(/C=C/C#N)c1)c1c(C(N)=O)[nH]c2ccc(Cl)cc12 (stereo not given) | 5.5 | 0.56 | 1.71 | 4.4 | 
C[C@@H](O[C@H]1OCCN(Cc2n[nH]c(=O)[nH]2)[C@H]1c1ccc(F)cc1)c1cc(C(F)(F)F)cc(C(F)(F)F)c1 |  | 0.94 |  | 13 | 
Cn1cncc1[C@@](N)(c1ccc(Cl)cc1)c1ccc2c(c1)c(-c1cccc(Cl)c1)cc(=O)n2C | 3.07 | 0.93 | 5.03 | 2.52 | 0.006
CCOC(=O)Nc1ccc(NCc2ccc(F)cc2)nc1N | 11 | 1.1 | 1.6 | 8.5 | 
COc1cc(OC)c(/C=C/S(=O)(=O)Cc2ccc(OC)c(NCC(=O)O)c2)c(OC)c1 | 1.2 | 0.11 | 1.51 | 0.95 | 
CN(C)c1cc(CNCC(C)(C)C)c(O)c2c1C[C@H]1C[C@H]3[C@H](N(C)C)C(O)=C(C(N)=O)C(=O)[C@@]3(O)C(O)=C1C2=O | 19.2 | 2.7 | 2.34 | 15 | 
COc1cccc2c1C(=O)c1c(O)c3c(c(O)c1C2=O)C[C@@](O)(C(=O)CO)C[C@@H]3O[C@H]1C[C@H](N2CCO[C@H](OC)C2)[C@H](O)[C@H](C)O1 | 53.3 | 49 | 15.3 | 49.2 | 
OCc1cc([C@@H](O)CNCCCCCCOCCOCc2c(Cl)cccc2Cl)ccc1O | 1.53 | 2.38 | 25.7 | 2.4 | 0.06
CCC(C(N)=O)N1CCCC1=O (stereo not given) | 11.2 | 0.6 | 0.9 | 8.23 | 0.9
CC(C)=CCC[C@]1(C)C=Cc2c(O)c3c(c(CC=C(C)C)c2O1)O[C@]12C(=CC4C[C@@H]1C(C)(C)O[C@@]2(C/C=C(/C)C(=O)O)C4=O)C3=O | 13.3 | 0.99 | 1.24 | 14.6 | 
Cc1c(CN(C)C(=O)C=Cc2cnc3c(c2)CCC(=O)N3)oc2ccccc12 | 8.4 | 0.43 | 0.9 | 6.4 | 
CON=C(C(=O)NC1C(=O)N2C(C(=O)O)=C(CSc3nc(=O)c(O)nn3C)CS[C@H]12)c1csc(N)n1 (stereo not given in full) | 9.6 | 0.12 | 0.22 | 7.6 | 0.1
CC(C)[N@+]1(C)[C@H]2CC[C@H]1C[C@H](OC(=O)C(c1ccccc1)C1CCCC1)C2 (stereo not given in full) | 2.48 | 1.25 | 8.41 | 3.3 | 
COC(=O)Nc1nc2cc(C(=O)c3ccccc3)ccc2[nH]1 | 1.3 | 1.2 | 15 | 1.1 | 
N/N=c1\[nH]ncc2ccccc12 | 0.29 | 1.5 | 85 | 1 | 0.12
NCCCNc1ccc2c(CNCCO)nn3c4c(O)ccc(O)c4c(=O)c1c23 | 11 | 12 | 18 | 32 | 
CC(=O)Oc1ccc2c3c1O[C@H]1[C@@H](OC(C)=O)C=C[C@H]4[C@@H](C2)N(C)CC[C@@]341 | 0.1 | 1.31 | 212 | 0.062 | 
O=C(O)CCCCN(CCc1ccccc1OCc1ccc(CCc2ccccc2)cc1)Cc1ccc(C(=O)O)cc1 | 0.44 | 0.24 | 9 | 0.25 | 
O=C(O[C@H]1C[N+]2(CCCOc3ccccc3)CCC1CC2)C(O)(c1cccs1)c1cccs1 | 1.76 | 4.3 | 48.5 |  | 
N=C(N)NCCCC1NC(=O)CCSSCC(C(N)=O)NC(=O)C2CCCN2C(=O)C(Cc2c[nH]c3ccccc23)NC(=O)C(CC(=O)O)NC(=O)CNC1=O (stereo not given) ([Mpa]RGDWPC-NH2; disulfide 1-7; configuration not given here) | 2.45 | 0.42 | 2.88 | 2.12 | 
COC(=O)C(c1ccccc1Cl)N1CCc2sccc2C1 (stereo not given) | 1.42 | 2.01 | 23.6 | 5.06 | 0.02

Structure (SMILES) | MRT [h] | Vd [L/kg] | clearance [mL/min/kg] | half-life [h] | fraction unbound
COc1cc2ncnc(Nc3ccc(F)c(Cl)c3)c2cc1OCCCN1CCOCC1 | 32 | 23 |  | 34 | 
O=C(O)Cn1c(=O)c(=O)[nH]c2cc([N+](=O)[O-])c(-n3ccnc3)cc21 | 0.6 | 0.19 | 5.3 | 0.78 | 
NC(=O)CN1CC(O)CC1=O (stereo not given) | 4.9 | 0.55 | 1.8 | 7.5 | 
C=C1C[C@@H]2CC[C@@]34C[C@H]5O[C@H]6[C@@H](O3)[C@H]3O[C@H](CC[C@@H]3O[C@H]6[C@H]5O4)CC(=O)O[C@@H]3[C@@H](OC)[C@@H](C[C@H](O)CN)O[C@H]3C[C@H]3O[C@@H](CC[C@@H]1O2)C[C@@H](C)C3=C | 32.5 | 1.46 | 0.75 | 37.8 | 0.43
COC(=O)C(c1ccccc1)[C@H]1CCCCN1 (stereo not given in full) | 6.62 | 2.65 | 6.67 | 8 | 0.87
Cn1c(NCCN(CCO)CCCc2ccc([N+](=O)[O-])cc2)cc(=O)n(C)c1=O | 1.56 | 1.96 | 20.9 | 1.52 | 0.09
O=C(/C=C/c1ccc(O)c2c1C(C(=O)OC(Cc1ccc(O)c(O)c1)C(=O)O)[C@@H](c1ccc(O)c(O)c1)O2)OC(Cc1ccc(O)c(O)c1)C(=O)O (stereo not given in full) | 0.42 | 0.14 | 7.17 | 0.29 | 0.08
CCCC(=O)Nc1ccc(OCC(O)CNC(C)C)c(C(C)=O)c1 (stereo not given) | 2.8 | 1.7 |  | 3.5 | 
C[C@@H](OC[C@@]1(c2ccccc2)CC[C@]2(CCC(=O)N2)CN1)c1cc(C(F)(F)F)cc(C(F)(F)F)c1 |  |  | 0.38 | 148 | 0.002
CO[C@H]1[C@@H](O)[C@H](N)[C@@H](O[C@H]2O[C@H]([C@H](C)N)CC[C@H]2N)[C@H](O)[C@H]1N(C)C(=O)CN | 2.8 | 0.23 | 1.37 | 2 | 
COc1ccc(C[C@@H]2c3cc(OC)c(OC)cc3CC[N@+]2(C)CCC(=O)OCCCCCOC(=O)CC[N@@+]2(C)CCc3cc(OC)c(OC)cc3[C@H]2Cc2ccc(OC)c(OC)c2)cc1OC | 0.43 | 0.14 | 5.4 | 0.42 | 0.62
NCCCCCC(=O)O | 2.6 | 0.39 | 2.5 | 4.9 | 0.92
N#Cc1ccc2c(c1)CN(S(=O)(=O)c1cccs1)[C@H](Cc1ccccc1)CN2Cc1cnc[nH]1 | 1.4 | 0.84 | 9.6 | 1.6 | 0.01
O=C(O)C[C@@H]1CC[C@H](NC(=O)Cc2cccs2)B(O)O1 | 1.64 | 0.29 | 2.94 | 1.34 | 0.67
CC(=O)Nc1c(I)c(NC(C)=O)c(I)c(C(=O)O)c1I | 2.6 |  | 1.7 |  | 1
COc1cc(CC2c3c(cc(OC)c(OC)c3OC)CC[N+]2(C)CCCOC(=O)CCC(=O)OCCC[N+]2(C)CCc3cc(OC)c(OC)c(OC)c3C2Cc2cc(OC)c(OC)c(OC)c2)cc(OC)c1OC (stereo not given) | 1.4 | 0.22 | 2.7 | 1.7 | 0.53
O=C(CCCN1CC=C(n2c(=O)[nH]c3ccccc32)CC1)c1ccc(F)cc1 | 2.73 | 1.41 | 8.92 | 1.9 | 
CN1CC[C@]23CCCC[C@H]2[C@H]1Cc1ccc(O)cc13 | 12.2 | 11.5 | 15.7 | 13.5 | 0.6
COc1ccc(C(=O)Nc2ccccc2CCC2CCCCN2C)cc1 (stereo not given) | 2.8 | 2.2 | 13 | 2.6 | 
CCCCCCCN(CC)CCCC(O)c1ccc(NS(C)(=O)=O)cc1 (stereo not given) | 7.7 | 12 | 26 | 7 | 
CN(C)[C@@H]1C(O)=C(C(N)=O)C(=O)[C@@]2(O)C(O)=C3C(=O)c4c(O)cccc4[C@@](C)(O)[C@H]3[C@H](O)[C@@H]12 | 12 | 1.7 | 2 | 10 | 0.9
Cn1cc[nH]c1=S | 3.8 | 0.86 | 3.7 | 2.4 | 

Structure (SMILES) | MRT [h] | Vd [L/kg] | clearance [mL/min/kg] | half-life [h] | fraction unbound
CC(C)CC1C(=O)N2CCC[C@H]2[C@]2(O)O[C@@](C)(NC(=O)C3C[C@@H]4c5cccc6[nH]cc(c56)C[C@H]4N(C)C3)C(=O)N12 (stereo not given in full) | 5.01 | 4.02 | 12.8 | 8.84 | 
COc1ccsc1CNCC[C@@]1(c2ccccn2)CCOC2(CCCC2)C1 | 1.9 | 0.78 | 6.89 | 1.8 | 
CON=C(C(=O)NC1C(=O)N2C(C(=O)[O-])=C(C[n+]3ccc(-c4cnco4)cc3)CS[C@H]12)c1csc(N)n1 (stereo not given in full) | 2.64 | 0.22 | 1.76 | 1.78 | 
CC(C)=CCN1CC[C@]2(C)c3cc(O)ccc3C[C@H]1C2C (stereo not given in full) |  |  |  |  | 0.39
CCN(CC)CCNC(=O)c1cc(Cl)c(N)cc1OC(C)C(C)=O (stereo not given) | 2.68 | 1.5 | 9.32 | 2.7 | 0.46
C=CCN(C1=NCCN1)c1c(Cl)cccc1Cl | 3.77 | 2.72 | 12 | 3.14 | 0.4
CC1(C)S[C@@H]2C(/N=C/N3CCCCCC3)C(=O)N2C1C(=O)O (stereo not given in full) | 1 | 0.37 | 6.3 | 1.1 | 0.9
CN1CC[C@H](c2c(O)cc(O)c3c(=O)cc(-c4ccccc4Cl)oc23)[C@H](O)C1 | 4 | 1.5 | 6.1 | 5.2 | 0.06
CCC(C)(C)NCC(O)COc1ccccc1C(=O)CCc1ccccc1 (stereo not given) | 1.9 | 1.2 | 11 | 1.5 | 0.017
Cc1ccc(S(=O)(=O)NC(=O)N[C@H]2[C@H]3CC[C@@](C)([C@H]2O)C3(C)C)cc1 | 13 | 0.27 | 0.34 | 9.2 | 
O=C(O)c1cc(/N=N/c2ccc(S(=O)(=O)Nc3ccccn3)cc2)ccc1O | 6.8 | 0.11 | 0.26 | 7.6 | 0.004
CC1C(=O)O[C@H]2[C@H](O)C34[C@H]5C[C@@H](C(C)(C)C)C36C(O)C(=O)O[C@H]6OC4(C(=O)O5)[C@@]12O (stereo not given in full) | 6.6 | 0.91 | 2.3 | 5.2 | 0.8
Nc1ccn([C@@H]2C=C(CO)[C@@H](O)[C@H]2O)c(=O)n1 |  |  | 3.61 |  | 
N=C(N)c1ccc(OCCCCCOc2ccc(C(=N)N)cc2)cc1 | 12 | 53 | 74 | 25 | 0.09
Cn1cc(NC(=O)Nc2cc(C(=O)Nc3cc(C(=O)Nc4ccc5cc(S(=O)(=O)O)cc(S(=O)(=O)O)c5c4)n(C)c3)n(C)c2)cc1C(=O)Nc1cc(C(=O)Nc2ccc3cc(S(=O)(=O)O)cc(S(=O)(=O)O)c3c2)n(C)c1 | 960 | 0.27 | 0.0047 | 730 | 
C[C@H]1CN(c2c(F)cc3c(=O)c(C(=O)O)cn(C4CC4)c3c2OC(F)F)CCN1 | 7.1 | 1.1 | 2.7 | 5.9 | 
CN(C)[C@@H]1C(O)=C(C(N)=O)C(=O)[C@@]2(O)C(O)=C3C(=O)c4c(O)c(NC(=O)CN5CCCC5)cc(F)c4C[C@H]3C[C@@H]12 | 10.3 | 2.3 | 3.71 |  | 0.18
CC[C@H](c1ccccc1)c1c(O)c2ccccc2oc1=O | 182 | 0.2 | 0.02 | 126 | 0.57
CN(C)C1CCN(C(=O)c2ccc(NC(=O)Nc3ccc(-c4nc(N5CCOCC5)nc(N5CCOCC5)n4)cc3)cc2)CC1 | 17.6 | 2.39 | 2.25 | 35.8 | 
Cc1[nH]cnc1CN1CCc2c(c3ccccc3n2C)C1=O | 2.1 | 1.1 | 8.7 | 1.6 | 
C#C[C@]1(O)CC[C@H]2[C@@H]3CC=C4CC(=O)CCC4[C@H]3C(=C)C[C@@]21CC (stereo not given in full) | 23.6 | 2.87 | 2 | 25 | 0.02
CN1CC[C@]23c4c5ccc(O)c4O[C@H]2[C@@H](O[C@@H]2OC(C(=O)O)[C@@H](O)[C@H](O)[C@H]2O)C=C[C@H]3[C@H]1C5 (stereo not given in full) | 0.91 | 0.12 | 2.2 | 1.4 | 0.67
